Measurements as given in patent US20230050965A1, “SSTR5 ANTAGONISTS” (Kallyope, Inc., priority 2019, published 2023).

Target: T1, human SSTR5 (Homo sapiens, UniProt P35346)
T1 construct: expressed in transfected cells
Test: Inositol phosphate (IP1) accumulation assay, antagonist mode
Type: cell-based
Conditions: CHO-K1 cells stably co-expressing human SSTR5 with Gqi5; pre-incubation with antagonist, then SST28 agonist; IP1 HTRF readout
Description: Inositol Phosphate Accumulation Assay
CHO-K1 cells stably co-expressing human SSTR5 with Gqi5 were developed using Jump-In technology from Thermo-Fisher. Gqi5 is the mouse G alpha q protein, that was modified to interact with Gi-coupled GPCRs as described previously (Coward, P.; Chan, S. D.; Wada, H. G.; Humphries, G. M.; Conklin, B. R. Chimeric G proteins Allow a High-Throughput Signaling Assay of Gi-Coupled Receptors. Anal Biochem. 1999, 270(2), 242-248).
Co-expression of Gqi5 with SSTR5 allowed monitoring of SSTR5 activity by following IP1 accumulation. The assay was performed in a 384-well plate format using the IP1 assay kit from Cis-Bio in an antagonist mode, i.e., pre-incubation with antagonist following by receptor activation by agonist at a concentration generating 90% of full activation. Frozen cells expressing human SSTR5 were thawed, washed, and then plated in DMEM supplemented with 10% FBS and non-essential amino acids. 40 μL of 2.5×10^5 cells/mL were plated on a Poly D-Lysine coated 384-well white plate. The cells were then incubated for 16 hr. at 37° C./5% CO2. After 16 hour the medium was removed, and 10 μL of stimulation buffer was added to the cells. Test compounds were dissolved in DMSO at concentrations 2000-fold that of the final assay concentrations. 7.5 nL compound solutions were transferred to the cell plates using a Labcyte Echo® acoustic liquid handler. The plates were then incubated for 15 minutes at 37° C./5% CO2. After the first incubation, 5 μL of 30 nM SST28 were added to the cells, and the cells were incubated for 90 minutes at 37° C./5% CO2. 5 μL of detection buffer (prepared as described in the IP-1 kit) was added to each well, and the plates were incubated at RT for 1 hour.
TR-FRET was measured using a ClarioSTAR plate reader, calculating the ratio between emissions at 665 nm and 620 nm (HTRF ratio). The HTRF ratio for positive (Max) and negative (Min) controls were used to normalize HTRF data and generate values for % inhibition. IC50 and maximal inhibition values were determined using a standard 4-parameter fit.

T1 sequence (P35346 whole entry): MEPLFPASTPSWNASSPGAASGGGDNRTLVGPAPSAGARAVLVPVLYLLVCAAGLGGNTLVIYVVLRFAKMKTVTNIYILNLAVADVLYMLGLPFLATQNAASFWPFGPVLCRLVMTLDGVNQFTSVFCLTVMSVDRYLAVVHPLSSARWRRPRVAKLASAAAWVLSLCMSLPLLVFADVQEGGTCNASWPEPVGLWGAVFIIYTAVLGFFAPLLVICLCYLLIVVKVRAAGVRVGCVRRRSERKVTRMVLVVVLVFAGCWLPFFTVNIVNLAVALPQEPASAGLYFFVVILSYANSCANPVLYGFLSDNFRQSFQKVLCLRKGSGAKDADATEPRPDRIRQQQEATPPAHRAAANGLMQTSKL

Row | Structure (SMILES) | IC50 [µM]
1 | CCOc1cc(-c2ccc(F)cc2)c(C2CC2)cc1CN1CCC2(CC1)CN([C@H]1CC[C@@H](P(=O)(O)O)CC1)C(=O)O2 (single isomer, unassigned) [Compound 33, ((cis)-4-(8-((2-cyclopropyl-5-ethoxy-4'-fluoro-[1,1'-biphenyl]-4-yl)methyl)-2-oxo-1-oxa-3,8-diazaspiro[4.5]decan-3-yl)cyclohexyl)phosphonic acid] | ≤ 0.1
2 | CCOc1cc(-c2ccc(F)cc2)c(C2CC2)cc1CN1CCC2(CC1)CN([C@H]1CC[C@H](P(=O)(O)O)CC1)C(=O)O2 (single isomer, unassigned) [Compound 34, ((trans)-4-(8-((2-cyclopropyl-5-ethoxy-4'-fluoro-[1,1'-biphenyl]-4-yl)methyl)-2-oxo-1-oxa-3,8-diazaspiro[4.5]decan-3-yl)cyclohexyl)phosphonic acid] | ≤ 0.1
3 | CCOc1nc(-c2ccc(F)cc2)c(C2CC2)cc1CN1CCC2(CC1)CN(c1ccc(P(C)(=O)O)cc1)C(=O)O2 [Compound 4, (4-(8-((5-cyclopropyl-2-ethoxy-6-(4-fluorophenyl)pyridin-3-yl)methyl)-2-oxo-1-oxa-3,8-diazaspiro[4.5]decan-3-yl)phenyl)(methyl)phosphinic acid] | ≤ 0.1
4 | CCOc1cc(-c2ccc(F)cc2)c(C2CC2)cc1CN1CCC2(CC1)CN(c1ccc(P(=O)(O)O)cn1)C(=O)O2 [Compound 5, (6-(8-((2-cyclopropyl-5-ethoxy-4′-fluoro-[1,1′-biphenyl]-4-yl)methyl)-2-oxo-1-oxa-3,8-diazaspiro[4.5]decan-3-yl)pyridin-3-yl)phosphonic acid] | ≤ 0.1
5 | CCOc1cc(-c2ccc(F)cc2)c(C2CC2)cc1CN1CCC2(CC1)CN(c1ccc(P(=O)(O)O)nc1)C(=O)O2 [Compound 6, (5-(8-((2-cyclopropyl-5-ethoxy-4′-fluoro-[1,1′-biphenyl]-4-yl)methyl)-2-oxo-1-oxa-3,8-diazaspiro[4.5]decan-3-yl)pyridin-2-yl)phosphonic acid] | ≤ 0.1
6 | CCOc1cc(-c2ccc(F)cc2)c(C2CC2)cc1CN1CCC2(CC1)CC(=O)N(c1ccc(P(C)(=O)O)cc1)C2 [Compound 7, (4-(8-((2-cyclopropyl-5-ethoxy-4′-fluoro-[1,1′-biphenyl]-4-yl)methyl)-3-oxo-2,8-diazaspiro[4.5]decan-2-yl)phenyl)(methyl)phosphinic acid] | ≤ 0.1
7 | CCOc1cc(C#N)c(C2CC2)cc1CN1CCC2(CC1)CN(c1ccc(P(C)(=O)O)cc1)C(=O)O2 [Compound 8, (4-(8-(4-cyano-5-cyclopropyl-2-ethoxybenzyl)-2-oxo-1-oxa-3,8-diazaspiro[4.5]decan-3-yl)phenyl)(methyl)phosphinic acid] | ≤ 0.1
8 | CCOc1nc(-c2ccc(F)cc2)c(C2CC2)cc1CN1CCC2(CC1)CN(c1ccc(P(=O)(O)O)cc1)C(=O)O2 [Compound 10, (4-(8-((5-cyclopropyl-2-ethoxy-6-(4-fluorophenyl)pyridin-3-yl)methyl)-2-oxo-1-oxa-3,8-diazaspiro[4.5]decan-3-yl)phenyl)phosphonic acid] | ≤ 0.1
9 | CCOc1nc(-c2ccc(F)cc2)c(C2CC2)cc1CN1CCC2(CC1)CN(C13CC(CP(=O)(O)O)(C1)C3)C(=O)O2 [Compound 11, ((3-(8-((5-cyclopropyl-2-ethoxy-6-(4-fluorophenyl)pyridin-3-yl)methyl)-2-oxo-1-oxa-3,8-diazaspiro[4.5]decan-3-yl)bicyclo[1.1.1]pentan-1-yl)methyl)phosphonic acid] | ≤ 0.1
10 | CCOc1cc(-c2ccc(F)cc2)c(C2CC2)cc1CN1CCC2(CC1)CN(C13CC(CP(=O)(O)O)(C1)C3)C(=O)O2 [Compound 12, ((3-(8-((2-cyclopropyl-5-ethoxy-4′-fluoro-[1,1′-biphenyl]-4-yl)methyl)-2-oxo-1-oxa-3,8-diazaspiro[4.5]decan-3-yl)bicyclo[1.1.1]pentan-1-yl)methyl)phosphonic acid] | ≤ 0.1
11 | CCOc1cc(-c2ccc(F)cc2)c(C2CC2)cc1CN1CCC2(CC1)CN(c1ccc(B(O)O)cc1)C(=O)O2 [Compound 13, (4-(8-((2-cyclopropyl-5-ethoxy-4′-fluoro-[1,1′-biphenyl]-4-yl)methyl)-2-oxo-1-oxa-3,8-diazaspiro[4.5]decan-3-yl)phenyl)boronic acid] | ≤ 0.1
12 | CCOc1cc(-c2ccc(F)cc2)c(C2CC2)cc1CN1CCC2(CC1)CN(c1ccc(CCNC(=N)NC(=N)N)cc1)C(=O)O2 [Compound 14, 1-carbamimidoyl-3-[2-[4-[8-[[5-cyclopropyl-2-ethoxy-4-(4-fluorophenyl)phenyl]methyl]-2-oxo-1-oxa-3,8-diazaspiro[4.5]decan-3-yl]phenyl]ethyl]guanidine] | ≤ 0.1
13 | CCOc1cc(C(=O)OC)c(C2CC2)cc1CN1CCC2(CC1)CC(=O)N(c1ccc(CCCCNC(=O)NC(CO)(CO)CO)cc1)C2 [Compound 16, methyl 2-cyclopropyl-4-((2-(4-(4-(3-(1,3-dihydroxy-2-(hydroxymethyl)propan-2-yl)ureido)butyl)phenyl)-3-oxo-2,8-diazaspiro[4.5]decan-8-yl)methyl)-5-ethoxybenzoate] | > 5
14 | CCOc1cc(C(=O)OC)c(C2CC2)cc1CN1CCC2(CC1)CC(=O)N(c1ccc(CCCCNC=O)cc1)C2 [Compound 17, methyl 2-cyclopropyl-5-ethoxy-4-((2-(4-(4-formamidobutyl)phenyl)-3-oxo-2,8-diazaspiro[4.5]decan-8-yl)methyl)benzoate] | 0.1 to 1
15 | CCOc1cc(C(=O)OC)c(C2CC2)cc1CN1CCC2(CC1)CC(=O)N(c1ccc(CCCCNS(C)(=O)=O)cc1)C2 [Compound 18, methyl 2-cyclopropyl-5-ethoxy-4-((2-(4-(4-(methylsulfonamido)butyl)phenyl)-3-oxo-2,8-diazaspiro[4.5]decan-8-yl)methyl)benzoate] | 1 to 5
16 | CCOc1cc(C(=O)OC)c(C2CC2)cc1CN1CCC2(CC1)CC(=O)N(c1ccc(CCCCNC(=O)CO)cc1)C2 [Compound 19, methyl 2-cyclopropyl-5-ethoxy-4-((2-(4-(4-(2-hydroxyacetamido)butyl)phenyl)-3-oxo-2,8-diazaspiro[4.5]decan-8-yl)methyl)benzoate] | 1 to 5
17 | CCOc1cc(C(=O)OC)c(C2CC2)cc1CN1CCC2(CC1)CC(=O)N(c1ccc(CCCCNC(N)=O)cc1)C2 [Compound 20, methyl 2-cyclopropyl-5-ethoxy-4-((3-oxo-2-(4-(4-ureidobutyl)phenyl)-2,8-diazaspiro[4.5]decan-8-yl)methyl)benzoate] | 1 to 5
18 | CCOc1cc(C(=O)OC)c(C2CC2)cc1CN1CCC2(CC1)CN(c1ccc(P(=O)(O)O)cc1)C(=O)N2 [Compound 21, (4-(8-(5-cyclopropyl-2-ethoxy-4-(methoxycarbonyl)benzyl)-2-oxo-1,3,8-triazaspiro[4.5]decan-3-yl)phenyl)phosphonic acid] | ≤ 0.1
19 | CCOc1cc(-c2ccc(F)cc2)c(C2CC2)cc1CN1CCC2(CC1)CN(c1ccc(P(=O)(O)O)cc1)C(=O)N2 [Compound 22, (4-(8-((2-cyclopropyl-5-ethoxy-4′-fluoro-[1,1′-biphenyl]-4-yl)methyl)-2-oxo-1,3,8-triazaspiro[4.5]decan-3-yl)phenyl)phosphonic acid] | ≤ 0.1
20 | CCOc1cc(C(=O)OC)c(C2CC2)cc1CN1CCC2(CC1)CC(=O)N(c1ccc(P(=O)(O)O)cc1)C2 [Compound 23, (4-(8-(5-cyclopropyl-2-ethoxy-4-(methoxycarbonyl)benzyl)-3-oxo-2,8-diazaspiro[4.5]decan-2-yl)phenyl)phosphonic acid] | > 5
21 | CCOc1cc(C(=O)OC(C)C)c(C2CC2)cc1CN1CCC2(CC1)CC(=O)N(c1ccc(P(=O)(O)O)cc1)C2 [Compound 24, (4-(8-(5-cyclopropyl-2-ethoxy-4-(isopropoxycarbonyl)benzyl)-3-oxo-2,8-diazaspiro[4.5]decan-2-yl)phenyl)phosphonic acid] | 0.1 to 1
22 | CCOc1cc(-c2ccc(F)cc2)c(C2CC2)cc1CN1CCC2(CC1)CN(c1ccc(P(=O)(O)OCC)cc1)C(=O)N2 [Compound 25, ethyl hydrogen (4-(8-((2-cyclopropyl-5-ethoxy-4′-fluoro-[1,1′-biphenyl]-4-yl)methyl)-2-oxo-1,3,8-triazaspiro[4.5]decan-3-yl)phenyl)phosphonate] | ≤ 0.1
23 | CCOc1cc(-c2nc(C)no2)c(C2CC2)cc1CN1CCC2(CC1)CN(c1ccc(P(=O)(O)O)cc1)C(=O)O2 [Compound 26, (4-(8-(5-cyclopropyl-2-ethoxy-4-(3-methyl-1,2,4-oxadiazol-5-yl)benzyl)-2-oxo-1-oxa-3,8-diazaspiro[4.5]decan-3-yl)phenyl)phosphonic acid] | ≤ 0.1
